Where two headings read alike, the source gives them in different places.
Assays:
[1] = Study 1 plasma pharmacokinetics of verinurad, allopurinol and oxypurinol; type: in vivo, human; details: for Tmax: median (range); for Cmax / AUC: geometric mean (gCV%)
Method: (§1) Cohort 1 was randomized, double‐blind, and placebo‐controlled and consisted of 12 healthy Asian participants, of whom <50% were Chinese. Cohort 2 was open‐label, consisting of 9 healthy Chinese participants.
(§2) In both studies, participants received verinurad capsules with an extended‐release profile. On the days of pharmacokinetic sampling, treatment was given in fasting state.
(§3) Verinurad plasma samples were analyzed using similar methodologies as described by Shen et al.[13] with lower and upper limits of quantification of 0.100 ng/mL and 40.0 ng/mL, respectively.

[2] = Study 2 (NCT02608710) safety: adverse events, laboratory, vital signs, ECG; type: in vivo, human
Method: (§4) Study 2 was a Phase 1, randomized, open‐label study comprising of three parts. Parts 1 and 2 assessed the pharmacokinetics and pharmacodynamics of single and multiple doses of verinurad, respectively (Figure 1). Part 3 assessed the effect of food on the pharmacokinetics and pharmacodynamics of verinurad and is not reported further herein. In the single‐dose assessment, […] were randomized 1:1:1:1:1:1 into 1 of 6 treatment sequences with a single dose of 4.5, 6, or 12 mg verinurad, administered on days 1, 5, and 9 (Figure 1). In the multiple‐dose assessment, 8 participants received 12 mg verinurad QD on days 1 to 7.
(§5) Analysis of safety was based on adverse events (AEs), laboratory assessments (including hematology, clinical chemistry, urinalysis, and coagulation), vital signs (systolic and diastolic blood pressure, and pulse rate), electrocardiogram (ECG), and physical examination. AEs were coded using the Medical Dictionary for Regulatory Activities. In Study 1, a treatment‐emergent AE was defined as an AE with onset (start date/time) after the first dose of study drug in the run‐in period (day –7). In Study 2, AEs were recorded from the time the participant signed the informed consent through to the follow‐up visit. ECGs were obtained after the participant rested in the supine position. Digital ECG analysis in Study 1 was performed at the AstraZeneca ECG Center.
(§6) Safety was assessed in the safety analysis set of each study, comprising all participants who received ≥1 dose of study drug. Continuous variables are summarized using descriptive statistics, and categorical variables are summarized as frequency and proportion.

[3] = Study 1 (NCT03836599) safety: adverse events, laboratory, vital signs, ECG; type: in vivo, human; details: Study 1, up to 24 mg verinurad + 300 mg allopurinol
Description: as §1, §5, §6

[4] = design: method as in PMID 30334639; details: patients with gout, 1 Japanese study and 1 Western study; cited from earlier work
[5] = Study 2 plasma pharmacokinetics of verinurad; type: in vivo, human; details: healthy non-Asian participants; for Tmax: median (range); for half-life: read-out: t½λz (converted)
Method: as §4, §2
as §3, with “respectively. The ability to dilute overrange samples was also confirmed. […].” for “respectively.”
(§7) Pharmacokinetics and pharmacodynamics were assessed in all participants who received ≥1 dose of study drug and had ≥1 corresponding assessment.

[6] = test system: serum uric acid (sUA) and urinary uric acid (uUA); test: Study 2 pharmacodynamics: serum and urinary uric acid; type: in vivo, human; details: healthy non-Asian participants
Method: as §4
Key pharmacodynamic parameters included time‐matched percentage change from baseline (day –1) at each timepoint in sUA concentration, maximum observed percentage change from baseline (time‐matched, day –1) in sUA concentration (Emax,CB) and time to Emax,CB, amount of UA recovered in urine (Aeur), and fractional excretion of UA (FEUA).
as §7

[7] = design: method as in PMID 29949102; details: cited from earlier work
[8] = design: method as in PMID 29950814; details: cited from earlier work
[9] = healthy Asian participants, 24 mg verinurad + 300 mg allopurinol QD, Day 7
[10] = healthy Chinese participants, 12 mg verinurad + 300 mg allopurinol day 1 and QD days 3-9, Day 9, arithmetic mean (SD)
[11] = healthy Chinese participants, 12 mg verinurad + 300 mg allopurinol, Day 1, arithmetic mean (SD)
[12] = multiple-dose assessment, 12 mg verinurad QD (n = 8)
[13] = single-dose assessment, 4.5 mg verinurad (n = 16)
[14] = single-dose assessment, 6 mg verinurad (n = 16)
[15] = single-dose assessment, 12 mg verinurad (n = 16)
[16] = multiple-dose assessment 12 mg verinurad QD, Day 7, geometric mean (gCV%)
[17] = single dose 6 mg verinurad, geometric mean (gCV%)
[18] = single dose 12 mg verinurad, geometric mean (gCV%)
[19] = 12 mg verinurad QD, day 1, 3 to 6 h post-dose
[20] = 12 mg verinurad QD, day 7, 3 to 6 h post-dose
[21] = single dose 4.5 mg verinurad, 3 to 6 h post-dose
[22] = single dose 6 mg verinurad, 3 to 6 h post-dose
[23] = single dose 12 mg verinurad, 3 to 6 h post-dose
[24] = single dose 15 mg verinurad, moderate renal impairment
[25] = single dose 15 mg verinurad, severe renal impairment
[26] = single dose, mild renal impairment
[27] = healthy Japanese male participants, day 6 after QD dosing with 15 mg verinurad modified-release formulation

For `CC(C)(Sc1ccncc1-c1ccc(C#N)c2ccccc12)C(=O)O` [verinurad], the CL/F ([1]; healthy Asian participants, 24 mg verinurad + 300 mg allopurinol QD, Day 1, arithmetic mean (SD)) was 48.6 (11.3) L/h, the Tmax ([1]; healthy Asian participants, 24 mg verinurad + 300 mg allopurinol QD, Day 1) was 5.00 (4.98–6.02) h and the CL/F ([1]; healthy Asian participants, 24 mg verinurad + 300 mg allopurinol QD, Day 7, arithmetic mean (SD)) was 50.9 (9.01) L/h. The Cmax [1, 9] was 73.6 (29.0) ng/mL, the Tmax [1, 9] was 5.00 (4.00–6.00) h and the CL/F [1, 10] was 47.9 (17.2) L/h. The t½λz [1, 10] was 6.27 (0.647) h, the CL/F [1, 11] was 43.4 (16.2) L/h and the t½λz [1, 11] was 12.9 (3.08) h. For the same compound, the Tmax ([1]; healthy Chinese participants, 12 mg verinurad + 300 mg allopurinol, Day 1) was 5.00 (4.00–6.00) h, the half-life ([1]; human, plasma, oral, healthy Asian participants, 24 mg verinurad + 300 mg allopurinol QD, Day 1, arithmetic mean (SD), read-out: t½λz (converted)) was 5.98 h and the AUC ([1]; human, plasma, oral, healthy Asian participants, 24 mg verinurad + 300 mg allopurinol QD, Day 1, read-out: AUC) was 506 ng·h/mL. The AUC ([1]; human, plasma, oral, healthy Asian participants, 24 mg verinurad + 300 mg allopurinol QD, Day 1, read-out: AUCτ) was 415 ng·h/mL, the Cmax ([1]; human, plasma, oral, healthy Asian participants, 24 mg verinurad + 300 mg allopurinol QD, Day 1, read-out: Cmax) was 71.2 ng/mL and the AUC ([1]; human, plasma, oral, healthy Asian participants, 24 mg verinurad + 300 mg allopurinol QD, Day 7, read-out: AUCτ) was 478 ng·h/mL. It also gave an AUC ([1]; human, plasma, oral, healthy Chinese participants, 12 mg verinurad + 300 mg allopurinol day 1 and QD days 3-9, Day 9, read-out: AUCτ) of 264 ng·h/mL, a Cmax ([1]; human, plasma, oral, healthy Chinese participants, 12 mg verinurad + 300 mg allopurinol day 1 and QD days 3-9, Day 9, read-out: Cmax) of 42 ng/mL and a Tmax ([1]; human, plasma, oral, healthy Chinese participants, 12 mg verinurad + 300 mg allopurinol day 1 and QD days 3-9, Day 9, read-out: tmax) of 5.5 h. For the same compound, the AUC ([1]; human, plasma, oral, healthy Chinese participants, 12 mg verinurad + 300 mg allopurinol, Day 1, read-out: AUC) was 295 ng·h/mL, the AUC ([1]; human, plasma, oral, healthy Chinese participants, 12 mg verinurad + 300 mg allopurinol, Day 1, read-out: AUCτ) was 226 ng·h/mL and the Cmax ([1]; human, plasma, oral, healthy Chinese participants, 12 mg verinurad + 300 mg allopurinol, Day 1, read-out: Cmax) was 47.6 ng/mL. For the same compound, the “diarrhea, participants” value ([2]; human, in vivo) was 2, the “findings in laboratory parameters, vital signs, 12-lead ECG variables” value ([2]; in vivo) was “No clinically significant findings” and the “Death, Events” value [2, 12] was 0 Events. For the same compound, the “Death, n (%)” value [2, 12] was 0 n (%), the “Death, Events” value [2, 13] was 0 Events and the “Death, n (%)” value [2, 13] was 0 n (%). The “Death, Events” value [2, 14] was 0 Events, the “Death, n (%)” value [2, 14] was 0 n (%) and the “Death, Events” value [2, 15] was 0 Events. For the same compound, the “Death, n (%)” value [2, 15] was 0 n (%), the tolerability [3] was “well tolerated” and the “verinurad exposure, higher than in Western patients” value [4] was over 2 fold. For the same compound, the CL/F ([5]; multiple-dose assessment 12 mg verinurad QD, Day 1, geometric mean (gCV%)) was 52.2 (20.2) L/h, the Tmax ([5]; multiple-dose assessment 12 mg verinurad QD, Day 1) was 5.00 (2.00–6.00) h and the CL/F [5, 16] was 44.2 (27.3) L/h. For the same compound, the t½λz [5, 16] was 10.9 (19.1) h, the CL/F ([5]; single dose 4.5 mg verinurad, geometric mean (gCV%)) was 51.8 (27.9) L/h and the Tmax ([5]; single dose 4.5 mg verinurad) was 4.00 (2.00–6.00) h. The CL/F [5, 17] was 58.8 (40.5) L/h, the Cmax [5, 17] was 13.4 (67.6) ng/mL and the Tmax ([5]; single dose 6 mg verinurad) was 4.00 (2.00–6.05) h. For the same compound, the CL/F [5, 18] was 58.3 (44.4) L/h, the t½λz [5, 18] was 12.2 (67.7) h and the Tmax ([5]; single dose 12 mg verinurad) was 4.00 (2.00–6.00) h. The AUC ([5]; human, plasma, oral, 4.5 mg, single dose 4.5 mg verinurad, geometric mean (gCV%), read-out: AUC) was 86.8 ng·h/mL, the AUC ([5]; human, plasma, oral, 4.5 mg, single dose 4.5 mg verinurad, geometric mean (gCV%), read-out: AUCτ) was 68.1 ng·h/mL and the Cmax ([5]; human, plasma, oral, 4.5 mg, single dose 4.5 mg verinurad, geometric mean (gCV%), read-out: Cmax) was 11.8 ng/mL. The AUC ([5]; human, plasma, oral, 6 mg, single dose 6 mg verinurad, geometric mean (gCV%), read-out: AUC) was 102 ng·h/mL, the AUC ([5]; human, plasma, oral, 6 mg, single dose 6 mg verinurad, geometric mean (gCV%), read-out: AUCτ) was 80.8 ng·h/mL and the AUC ([5]; human, plasma, oral, 12 mg, multiple-dose assessment 12 mg verinurad QD, Day 1, geometric mean (gCV%), read-out: AUC) was 230 ng·h/mL. The AUC ([5]; human, plasma, oral, 12 mg, multiple-dose assessment 12 mg verinurad QD, Day 1, geometric mean (gCV%), read-out: AUCτ) was 209 ng·h/mL, the Cmax ([5]; human, plasma, oral, 12 mg, multiple-dose assessment 12 mg verinurad QD, Day 1, geometric mean (gCV%), read-out: Cmax) was 29.9 ng/mL and the AUC ([5]; human, plasma, oral, 12 mg, multiple-dose assessment 12 mg verinurad QD, Day 7, geometric mean (gCV%), read-out: AUCτ) was 271 ng·h/mL. It also gave a Cmax ([5]; human, plasma, oral, 12 mg, multiple-dose assessment 12 mg verinurad QD, Day 7, geometric mean (gCV%), read-out: Cmax) of 36.3 ng/mL, an AUC ([5]; human, plasma, oral, 12 mg, single dose 12 mg verinurad, geometric mean (gCV%), read-out: AUC) of 206 ng·h/mL and an AUC ([5]; human, plasma, oral, 12 mg, single dose 12 mg verinurad, geometric mean (gCV%), read-out: AUCτ) of 168 ng·h/mL. It also gave a Cmax ([5]; human, plasma, oral, 12 mg, single dose 12 mg verinurad, geometric mean (gCV%), read-out: Cmax) of 28.6 ng/mL, an AUC ([5]; human, plasma, oral, 12 mg, single dose of verinurad 4.5, 6, or 12 mg, read-out: geometric mean AUCτ, range over doses) of 68.1 to 168 ng·h/mL and a Cmax ([5]; human, plasma, oral, 12 mg, single dose of verinurad 4.5, 6, or 12 mg, read-out: geometric mean Cmax, range over doses) of 11.8 to 28.6 ng/mL. It also gave a half-life ([5]; human, plasma, oral, multiple-dose assessment 12 mg verinurad QD, Day 1, geometric mean (gCV%)) of 7.15 h, a Tmax ([5]; human, plasma, oral, multiple-dose assessment 12 mg verinurad QD, Day 7, read-out: tmax) of 6 h and a half-life ([5]; human, plasma, oral, single dose 4.5 mg verinurad, geometric mean (gCV%)) of 12.7 h. For the same compound, the half-life ([5]; human, plasma, oral, single dose 6 mg verinurad, geometric mean (gCV%)) was 13.6 h, the “tEmax,CB, mean (SD)” value ([6]; 12 mg verinurad QD, Day 1) was 9.0 (1.0) hour and the “tEmax,CB, mean (SD)” value ([6]; 12 mg verinurad QD, Day 7) was 7.0 (3.0) hour. The “mean Aeur at peak, higher compared with day –1” value (shortened to “mean Aeur … compared with day –1”) [6, 19] was 353%, the “mean FEUA at peak” value [6, 19] was 33.3% and the “mean Aeur … compared with day –1” value [6, 20] was 81.3%. The “mean FEUA at peak” value [6, 20] was 31.2%, the “tEmax,CB, mean (SD)” value ([6]; single dose 4.5 mg verinurad) was 8.0 (2.1) hour and the “mean Aeur … compared with day –1” value [6, 21] was 219%. For the same compound, the “mean FEUA at peak” value [6, 21] was 21.5%, the “tEmax,CB, mean (SD)” value ([6]; single dose 6 mg verinurad) was 8.0 (2.0) hour and the “mean Aeur … compared with day –1” value [6, 22] was 267%. The “mean FEUA at peak” value [6, 22] was 24.8%, the “tEmax,CB, mean (SD)” value ([6]; single dose 12 mg verinurad) was 9.0 (1.5) hour and the “mean Aeur … compared with day –1” value [6, 23] was 338%. For the same compound, the “mean FEUA at peak” value [6, 23] was 33.3%, the “AUC increase compared with normal renal function” value (“AUC increase” below) [7, 24] was 148% and the “Cmax increase compared with normal renal function” value (“Cmax increase” below) [7, 24] was 73%. The “AUC increase” value [7, 25] was 130%, the “Cmax increase” value [7, 25] was 128% and the “AUC increase” value [7, 26] was 24%. The “Cmax increase” value [7, 26] was 53%, the “accumulation for AUC” value ([8]; after QD doses) was 1.3 fold and the “accumulation for Cmax” value ([8]; after QD doses) was ~ 1.2 fold. For the same compound, the AUCτ [8, 27] was 239 ng·h/mL and the Cmax [8, 27] was 38.2 ng/mL.

From article PMC9121888 (Pharmacology Research & Perspectives, 2022)
